Laboratory results published in patent US20240383954A1, “PEPTIDE INHIBITORS OF INTERLEUKIN-23 RECEPTOR AND THEIR USE TO TREAT INFLAMMATORY DISEASES” (Janssen Biotech, Inc., priority 2020, published 2024).
Positions of bridges follow the written chain, without caps; N, C: chain ends. Non-standard residues stand in square brackets, D forms with d. Residues, ends and D or L forms follow the SMILES beside them. *: point of attachment. Trp(7-Me) = Cc1cccc2c(C[C@H](N)C(=O)O)c[nH]c12; dPhe(4-NH2) = Nc1ccc(C[C@@H](N)C(=O)O)cc1; Ac6c(4,4-F2) = NC1(C(=O)O)CCC(F)(F)CC1; 2Nal = N[C@@H](Cc1ccc2ccccc2c1)C(=O)O; AEF = NCCOc1ccc(C[C@H](N)C(=O)O)cc1; αMeF = C[C@](N)(Cc1ccccc1)C(=O)O; Cit = NC(=O)NCCC[C@H](N)C(=O)O; αMeL = CC(C)C[C@](C)(N)C(=O)O; Pen = CC(C)(S)[C@H](N)C(=O)O; Thp = NC1(C(=O)O)CCOCC1; Pentanoyl = CCCCC(=O)*; Ac3c = NC1(C(=O)O)CC1; Propionyl = CCC(=O)*

Target: IL-23R (Homo sapiens, UniProt Q5VWK5)
Sequence (Q5VWK5 24-629): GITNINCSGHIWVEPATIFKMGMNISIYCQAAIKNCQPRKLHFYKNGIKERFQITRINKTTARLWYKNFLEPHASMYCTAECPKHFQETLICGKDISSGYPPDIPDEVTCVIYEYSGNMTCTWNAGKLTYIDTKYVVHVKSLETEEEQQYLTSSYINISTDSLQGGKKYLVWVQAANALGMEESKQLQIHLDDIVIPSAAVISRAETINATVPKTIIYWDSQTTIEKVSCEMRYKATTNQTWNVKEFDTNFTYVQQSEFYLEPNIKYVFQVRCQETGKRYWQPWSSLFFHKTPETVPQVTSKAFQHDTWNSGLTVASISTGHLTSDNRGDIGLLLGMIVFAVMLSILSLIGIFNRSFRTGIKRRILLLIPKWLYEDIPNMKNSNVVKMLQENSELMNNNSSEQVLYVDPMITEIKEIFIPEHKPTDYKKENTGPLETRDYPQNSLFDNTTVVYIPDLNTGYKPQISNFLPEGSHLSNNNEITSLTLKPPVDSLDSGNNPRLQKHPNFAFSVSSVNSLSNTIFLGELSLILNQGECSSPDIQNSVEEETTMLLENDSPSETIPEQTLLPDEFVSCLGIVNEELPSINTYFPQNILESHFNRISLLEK
Assay: cell-based
Details: PBMC pSTAT3 IC50 (nM), PBMCs from healthy donors, IL-23 5 ng/mL, 30 minutes, phosphorylated STAT3
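Note: cryopreserved PBMCs stimulated at 37 °C in 5% CO2, then lysed, with phosphorylated STAT3 quantified in lysates using a phospho-STAT panel kit.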

Description: Cryopreserved peripheral blood mononuclear cells (PBMCs) from healthy donors were thawed and washed twice in ImmunoCult-XF T cell expansion medium (XF-TCEM) supplemented with CTL anti-aggregate wash. […] The cells were stimulated with cytokine for 30 minutes at 37° C. in 5% CO2, transferred onto ice for 10 minutes, and lysed. Cell lysates were stored at −80° C. until phosphorylated STAT3 was measured using the phospho-STAT panel kit (Meso Scale Discovery, K15202D).

| SMILES | IC50 [nM] |
| --- | --- |
| CC(=O)NCCCC[C@@H]1NC(=O)[C@H](Cc2c[nH]c3c(C)cccc23)NC(=O)[C@H]([C@@H](C)O)NC(=O)[C@H](CC(N)=O)NC(=O)[C@@H](NC(=O)[C@@H](CCCNC(=N)N)NC(C)=O)C(C)(C)SSC(C)(C)[C@@H](C(=O)N[C@@H](Cc2ccc(OCCN)cc2)C(=O)N[C@@H](Cc2ccc3ccccc3c2)C(=O)NC2(C(=O)N[C@@H](CCC(=O)O)C(=O)N[C@@H](CC(N)=O)C(=O)NC3(C(N)=O)CCOCC3)CCC(F)(F)CC2)NC1=O [Compound 303, MeCO-r-Pen-N-T-7MeW-K(Ac)-Pen-AEF-2Nal-4diFAchx-E-N-THP--CONH2] (Ac-[dR][Pen]NT[Trp(7-Me)]K(Ac)[Pen][AEF][2Nal][Ac6c(4,4-F2)]EN[Thp]-NH2; disulfide 2-7) | 1.3 |
| CC(=O)NCCCC[C@@H]1NC(=O)[C@H](Cc2c[nH]c3c(C)cccc23)NC(=O)[C@H]([C@@H](C)O)NC(=O)[C@H](CC(N)=O)NC(=O)[C@@H](NC(C)=O)C(C)(C)SSC(C)(C)[C@@H](C(=O)N[C@@H](Cc2ccc(OCCN)cc2)C(=O)N[C@@H](Cc2ccc3ccccc3c2)C(=O)N[C@@](C)(CCCCN)C(=O)N[C@@H](CCCCNC(C)=O)C(=O)N[C@@H](CC(N)=O)C(=O)N[C@@](C)(Cc2ccccc2)C(=O)N[C@@H](Cc2cccnc2)C(N)=O)NC1=O [Compound 116, Ac-[Pen]-N-T-[W(7-Me)]-[Lys(Ac)]-[Pen]-Phe[4-(2-aminoethoxy)]-[2-Nal]-[a-MeLys]-[Lys(Ac)]-N-[a-MePhe]-[3Pal]-NH2] | 20 |
| CCCCC(=O)N[C@H](CCCNC(=N)N)C(=O)N[C@@H]1C(=O)N[C@@H](CCC(N)=O)C(=O)N[C@@H]([C@@H](C)O)C(=O)N[C@@H](Cc2c[nH]c3ccccc23)C(=O)N[C@@H](CCC(N)=O)C(=O)N[C@H](C(=O)N[C@@H](Cc2ccc(OCCN)cc2)C(=O)N[C@@H](Cc2ccc3ccccc3c2)C(=O)NC2(C(=O)N[C@@H](CCC(=O)O)C(=O)N[C@@H](CC(N)=O)C(=O)NC3(C(N)=O)CCOCC3)CCOCC2)C(C)(C)SSC1(C)C [Compound 9, [Pentanoic acid]-[(D)Arg]-[Pen]-Q-T-W-Q-[Pen]-Phe[4-(2-aminoethoxy)]-[2-Nal]-[THP]-E-N-[THP]-NH2] (Pentanoyl-[dR][Pen]QTWQ[Pen][AEF][2Nal][Thp]EN[Thp]-NH2; disulfide 2-7) | 29 |
| CCC(=O)N[C@H](CCCNC(=N)N)C(=O)N[C@@H]1C(=O)N[C@@H](CCC(N)=O)C(=O)N[C@@H]([C@@H](C)O)C(=O)N[C@@H](Cc2c[nH]c3ccccc23)C(=O)N[C@@H](CCC(N)=O)C(=O)N[C@H](C(=O)N[C@@H](Cc2ccc(OCCN)cc2)C(=O)N[C@@H](Cc2ccc3ccccc3c2)C(=O)NC2(C(=O)N[C@@H](CCC(=O)O)C(=O)N[C@@H](CC(N)=O)C(=O)NC3(C(N)=O)CCOCC3)CCOCC2)C(C)(C)SSC1(C)C [Compound 10, [Propionic_acid]-[(D)Arg]-[Pen]-Q-T-W-Q-[Pen]-Phe[4-(2-aminoethoxy)]-[2-Nal]-[THP]-E-N-[THP]-NH2] (Propionyl-[dR][Pen]QTWQ[Pen][AEF][2Nal][Thp]EN[Thp]-NH2; disulfide 2-7) | 4.6 |
| CC(=O)N[C@H](CCCNC(=N)N)C(=O)N[C@@H]1C(=O)N[C@@H](CC(N)=O)C(=O)N[C@@H]([C@@H](C)O)C(=O)N[C@@H](Cc2c[nH]c3c(C)cccc23)C(=O)N[C@@H](CCCNC(N)=O)C(=O)N[C@H](C(=O)N[C@@H](Cc2ccc(OCCN)cc2)C(=O)N[C@@H](Cc2ccc3ccccc3c2)C(=O)N[C@@](C)(CC(C)C)C(=O)N[C@@H](CCC(=O)O)C(=O)N[C@@H](CC(N)=O)C(=O)N[C@@](C)(Cc2ccccc2)C(N)=O)C(C)(C)SSC1(C)C [Compound 149, Ac-[(D)Arg]-[Pen]-N-T-[W(7-Me)]-[Cit]-[Pen]-Phe[4-(2-aminoethoxy)]-[2-Nal]-[aMeLeu]-E-N-[a-MePhe]-NH2] (Ac-[dR][Pen]NT[Trp(7-Me)][Cit][Pen][AEF][2Nal][αMeL]EN[αMeF]-NH2; disulfide 2-7) | 2.3 |
| CC(=O)N[C@H](CCCNC(=N)N)C(=O)N[C@@H]1C(=O)N[C@@H](CCC(N)=O)C(=O)N[C@@H]([C@@H](C)O)C(=O)N[C@@H](Cc2c[nH]c3ccccc23)C(=O)N[C@@H](CCC(N)=O)C(=O)N[C@H](C(=O)N[C@@H](Cc2ccc(OCCN)cc2)C(=O)N[C@@H](Cc2ccc3ccccc3c2)C(=O)NC2(C(=O)N[C@@H](CCCCNC(=O)C3CC3)C(=O)N[C@@H](CC(N)=O)C(=O)NC3(C(N)=O)CCOCC3)CCOCC2)C(C)(C)SSC1(C)C [Compound 51, Ac-[(D)Arg]-[Pen]-Q-T-W-Q-[Pen]-Phe[4-(2-aminoethoxy)]-[2-Nal]-[THP]-[Lys(COcPr)]-N-[THP]-NH2] | 27 |
| CC(=O)NCCCC[C@@H]1NC(=O)[C@H](Cc2c[nH]c3c(C)cccc23)NC(=O)[C@H]([C@@H](C)O)NC(=O)[C@H](CC(N)=O)NC(=O)[C@@H](NC(=O)[C@@H](CCCNC(=N)N)NC(C)=O)C(C)(C)SSC(C)(C)[C@@H](C(=O)N[C@@H](Cc2ccc(OCCN)cc2)C(=O)N[C@@H](Cc2ccc3ccccc3c2)C(=O)NC2(C(=O)N[C@@H](CCC(=O)O)C(=O)N[C@@H](CC(N)=O)C(=O)N[C@@H](Cc3c[nH]cn3)C(=O)N[C@H](Cc3ccc(N)cc3)C(N)=O)CC2)NC1=O [Compound 315, MeCO-r-Pen-N-T-7MeW-K(Ac)-Pen-AEF-2Nal-Acpx-E-N-H-4AmDPhe---CONH2] (Ac-[dR][Pen]NT[Trp(7-Me)]K(Ac)[Pen][AEF][2Nal][Ac3c]ENH[dPhe(4-NH2)]-NH2; disulfide 2-7) | 2 |
| CC(=O)NCCCC[C@@H]1NC(=O)[C@H](Cc2c[nH]c3ccccc23)NC(=O)[C@H]([C@@H](C)O)NC(=O)[C@H](CC(N)=O)NC(=O)[C@@H](NC(C)=O)C(C)(C)SSC(C)(C)[C@@H](C(=O)N[C@@H](Cc2ccc(OCCN)cc2)C(=O)N[C@@H](Cc2ccc3ccccc3c2)C(=O)N[C@@](C)(CCCCN)C(=O)N[C@@H](CCCCNC(C)=O)C(=O)N[C@@H](CC(N)=O)C(=O)NC2(C(N)=O)CCOCC2)NC1=O [Compound 95, Ac-[Pen]-N-T-W-[Lys(Ac)]-[Pen]-Phe[4-(2-aminoethoxy)]-[2-Nal]-[a-MeLys]-[Lys(Ac)]-N-[THP]-NH2] | 22 |
| CC(=O)NCCCC[C@H](NC(=O)[C@](C)(CCCCN)NC(=O)[C@H](Cc1ccc2ccccc2c1)NC(=O)[C@H](Cc1ccc(OCCN)cc1)NC(=O)[C@H]1NC(=O)[C@H](CCC(N)=O)NC(=O)[C@H](Cc2c[nH]c3c(C)cccc23)NC(=O)[C@H]([C@@H](C)O)NC(=O)[C@H](CC(N)=O)NC(=O)[C@@H](NC(C)=O)C(C)(C)SSC1(C)C)C(=O)N[C@@H](CC(N)=O)C(=O)N[C@@](C)(Cc1ccccc1)C(N)=O [Compound 89, Ac-[Pen]-N-T-[W(7-Me)]-Q-[Pen]-Phe[4-(2-aminoethoxy)]-[2-Nal]-[a-MeLys]-[Lys(Ac)]-N-[a-MePhe]-NH2] | 12 |
| CC(=O)NCCCC[C@@H]1NC(=O)[C@H](Cc2c[nH]c3c(C)cccc23)NC(=O)[C@H]([C@@H](C)O)NC(=O)[C@H](CC(N)=O)NC(=O)[C@@H](NC(C)=O)C(C)(C)SSC(C)(C)[C@@H](C(=O)N[C@@H](Cc2ccc(OCCN)cc2)C(=O)N[C@@H](Cc2ccc3ccccc3c2)C(=O)NC2(C(=O)N[C@@H](CCCCNC(=O)C(F)(F)F)C(=O)N[C@@H](CC(N)=O)C(=O)N[C@@](C)(Cc3ccccc3)C(N)=O)CCOCC2)NC1=O [Compound 138, Ac-[Pen]-N-T-[W(7-Me)]-[Lys(Ac)]-[Pen]-Phe[4-(2-aminoethoxy)]-[2-Nal]-[THP]-[Lys(COCF3)]-N-[a-MePhe]-NH2] | 7.6 |
